The record followed here is patent EP2181589A1, “Neurotoxic sterol glycosides” (Shaw, Christopher Ariel, priority 2008, dated 2010).

Where “and” joins values, the source holds several entries; their conditions need not be identical. Equal values may be shown once. Entries after “also recorded” stand apart in the source; their conditions may differ.

One data set concerns CD-1 mice. The experiment in a line: Rotarod test. It is filed as in vivo. Conditions: SG-fed vs control, duration of the study. Here is the method: Five-month old male CD-1 mice (30.1-35.7 g, 7.5 cm - 8.8 cm) were purchased from Charles River (Wilmington, MA). Adult mice were chosen to mimic the mean age of onset of ALS-PDC (Kurland, 1988; Kurland et al., 1994). Thirty mice for the SG study were randomly divided into 2 groups (14 control and 16 experimental animals). All animals were housed singly in a virus-free barrier facility in a room maintained at 22°C under a 12 hour light/dark cycle. The mice were provided ad libitum access to food and water.
The synthetic SG was mixed with finely ground Purina Chow mouse pellets (Mouse Diet™, Purina) to create the experimental pellets with a SG content of 1000 µg per pellet. Dry materials were blended with a sterile silicon spatula. […] SG feeding was conducted daily for 15 weeks and mice were behaviorally monitored until sacrifice at 35 weeks (time point 1) or 52 weeks (time point 2).
Rotorod: The rotarod was used to evaluate motor function, coordination and balance (Jones and Roberts, 1968; Sango et al., 1995; Gerlai et al., 1996a; Sango et al., 1996; Chapillon et al., 1998; Carter et al., 1999; Crawley, 1999; Gerlai and Roder, 1996). The time that a mouse could remain walking on a horizontal (Norflus et al., 1998), rotating axle (3.6 cm diameter; 16 rpm) elevated above an area of padding without falling, clenching on, or jumping off the axle was measured (Crawley, 1999), see FIGURE 15. […]
Background: The rotarod test checks motor coordination on a turning rod.

Data set [1] has as its system Phosphorylated TDP-43 aggregates. The experiment in a line: TDP-43 immunofluorescence. Conditions: for Phosphorylated TDP-43 aggregates: SG-fed. Further details: key to Phosphorylated TDP-43 aggregates: - = not present; + = present. It is filed as in vivo, CD-1 mice. Here is the method:
The synthetic SG was mixed with finely ground Purina Chow mouse pellets (Mouse Diet™, Purina) to create the experimental pellets with a SG content of 1000 µg per pellet. Dry materials were blended with a sterile silicon spatula. For every 5 g of standard feed, 2.5 mL of doubly-distilled water (dd)H2O was added and the dough was kneaded and round up into pellets. A single sterol glucoside containing pellet was placed in the feeding tray each morning before the addition of regular mouse chow (ad libitum). All experimental pellets were entirely consumed by the mice each day. Control mice were fed standard mouse chow pellets of identical weight with no additives. SG feeding was conducted daily for 15 weeks and mice were behaviorally monitored until sacrifice at 35 weeks (time point 1) or 52 weeks (time point 2).
Tissue-mounted slides were processed for fluorescence microscopy as follows: Sections were rinsed in coplin jars for 45 minutes at room temperature (RT) in three changes of PBS. Sections were then incubated at RT for 30 minutes in a blocking permeabilization solution made of 5% normal goat serum (NGS), 5% normal rabbit serum (NRS) or 5% BlokHen II (Aves Labs, Inc., Tigard, OR), 0.05% Triton X-100 and PBS. Subsequently, the blocking solution was tipped off and the slides were rinsed in PBS for 2 minutes. Sections were then incubated overnight in a humidified chamber at 4°C with a PBS buffered solution that contained 1% NGS or 1% NRS, 1% bovine serum albumin (BSA) and one of the following primary antibodies: (a) rabbit anti-human/mouse ATF-3 (H-90) IgG (polyclonal, 1:500; Santa Cruz Biotechnology, Inc., Santa Cruz, CA), (b) anti-activated caspase-3 IgG (monoclonal, 1:250; Chemicon International, Temecula, CA) (see FIGURE 9), (c) goat antihuman/ mouse choline acetyl transferase (ChAT) IgG (polyclonal, 1:100; Chemicon International, Temecula, CA) (see FIGURE 6), (d) rabbit anti-mouse glial fibrillary acidic protein IgG (polyclonal, 1:250; GeneTex Inc., San Antonio, TX) (see FIGURE 7), (e) rabbit antihuman/ mouse ionized calcium binding adaptor molecule 1 (IBA-1) IgG (polyclonal, 1:500; Wako Pure Chemical Industries, Ltd, Richmond, VA), (f) mouse anti-human/mouse clone AT8 PHF-1 Tau (monoclonal, 1:200; Pierce Biotechnology Inc., Rockford, IL), (g) rabbit anti-human/mouse TAR DNA-binding protein 43 (TDP43) (1:100; ProteinTech Group Inc., Chicago, IL) (See FIGURE 14), (h) chicken anti-human/mouse β-tubulin 3 (TuJ1 antigen) (polyclonal, 1:100, Aves Labs, Inc., Tigard, OR), (i) rabbit anti-mouse tyrosine hydroxylase (polyclonal, 1:500, Chemicon International, Temecula, CA or polyclonal 1:1000, Affinity BioReagents, Golden, CO) (FIGURE 10), (j) rabbit anti human/mouse anti-pJunser73 IgG (polyclonal, 1:200; Chemicon International, Temecula, CA), (k) rabbit anti human/mouse anti-HSP-70 IgG (polyclonal, 1:200; Chemicon International, Temecula, CA), or (1) rabbit anti human/mouse anti-HSP-25 IgG (polyclonal, 1:100; Chemicon International, Temecula, CA). In each experiment, additional slides were incubated with the primary antibody and the secondary antibody omitted or with secondary antibody and primary antibody omitted to test for nonspecific staining. Where appropriate, positive control slides (Alzheimer's disease patient entorhinal cortex, obtained from Drs. Claudia Schwab and Patrick McGeer of the Kinsmen Laboratory, University of British Columbia, Vancouver, BC, Canada) were also processed as above for comparison. […]

Turning to `CCC(C=CC(C)C1CCC2C3CC=C4CC(OC5OC(CO)C(O)C(O)C5O)CCC4(C)C3CCC12C)C(C)C` (stereo not drawn) [SG], the Rotarod performance result with CD-1 mice is recorded as “trend of diminished performance on the rotarod but numbers did not reach statistical significance; also recorded: decrease in the time without fall”. Also, in data set [1] (SG-fed animals), the “pathologic phosphorylated TDP-43-containing aggregates in the lumbar spinal cord” value is “increased”. In addition, the “translocation of TDP-43” value in data set [1] (SG-fed animals at 35 weeks) was “No abnormal translocation”. Further, in data set [1] (SG-fed group, time-point 2, 52 wk), the “Phosphorylated TDP-43 aggregates / TDP-43 pathology, animals affected” value was “Two of eight and 2/8”. For the same molecule, the “Phosphorylated TDP-43 aggregates” value is given as “-” in data set [1] (time-point 1, 35 wk) and “+” in data set [1] (time-point 2, 52 wk).
